Laboratory results published in ChEMBL document CHEMBL1759968, “Synthesis and biological evaluation of unsaturated keto and exomethylene D-arabinopyranonucleoside analogs: novel 5-fluorouracil analogs that target thymidylate synthase” (Eur J Med Chem, 2011).
Active and inactive are the calls of the source. The rule behind the calls is not given here.

Columns and labels:
[1] = tested on: Mammalian orthoreovirus 1; assay: Antiviral activity against Reovirus 1 infected in Vero cells assessed as inhibition of virus-induced cytopathic effect; assay type: functional, organism-based
Human respirovirus 3 = assay: Antiviral activity against Human parainfluenza virus 3 infected in Vero cells assessed as inhibition of virus-induced cytopathic effect; assay type: functional, organism-based
[2] = tested on: Vesicular stomatitis virus; assay: Antiviral activity against Vesicular stomatitis virus infected in HEL cells assessed as inhibition of virus-induced cytopathic effect; assay type: functional, organism-based
Vaccinia virus = assay: Antiviral activity against Vaccinia virus infected in HEL cells assessed as inhibition of virus-induced cytopathic effect; assay type: functional, organism-based; conditions: Orthopoxvirus vaccinia
Human alphaherpesvirus 2 = assay: Antiviral activity against Herpes simplex virus type-2 infected in HEL cells assessed as inhibition of virus-induced cytopathic effect; assay type: functional, organism-based
Human alphaherpesvirus 1 = assay: Antiviral activity against Herpes simplex virus type-1 infected in HEL cells assessed as inhibition of virus-induced cytopathic effect; assay type: functional, organism-based
HeLa [3] = assay: Ratio of compound IC50 to 5-flurouracil IC50 for human HeLa cells; assay type: functional
CCRF-CEM [4] = assay: Ratio of compound IC50 to 5-flurouracil IC50 for human CEM cells; assay type: functional
FM3A [5] = assay: Ratio of compound IC50 to 5-flurouracil IC50 for mouse FM3A cells; assay type: functional
L1210 [6] = assay: Ratio of compound IC50 to 5-flurouracil IC50 for mouse L1210 cells; assay type: functional
L1210 [7] = assay: Cytostatic activity against mouse L1210 cells after 2 days by coulter counting analysis; assay type: functional, cell-based; conditions: L1210, 48 h
FM3A [8] = assay: Cytostatic activity against mouse FM3A cells after 2 days by coulter counting analysis; assay type: functional, cell-based; conditions: 48 h
CCRF-CEM [9] = assay: Cytostatic activity against human CEM cells after 3 days by coulter counting analysis; assay type: functional, cell-based; conditions: 72 h
HeLa [10] = assay: Cytostatic activity against human HeLa cells after 3 days by coulter counting analysis; assay type: functional, cell-based; conditions: 72 h
L1210 [11] = assay: Cytostatic activity against mouse L1210 cells in presence of 20 uM thymidine; assay type: functional, cell-based
L1210 [12] = assay: Cytostatic activity against mouse L1210 cells in presence of 20 uM 2'-deoxyuridine; assay type: functional, cell-based
L1210 [13] = assay: Cytostatic activity against mouse L1210 cells in presence of 500 uM uridine; assay type: functional, cell-based
L1210 [14] = assay: Cytostatic activity against mouse L1210 cells in presence of 500 uM uracil; assay type: functional, cell-based
HeLa [15] = assay: Cytostatic activity against human HeLa cells in presence of 20 uM thymidine; assay type: functional, cell-based
HeLa [16] = assay: Cytostatic activity against human HeLa cells in presence of 20 uM 2'-deoxyuridine; assay type: functional, cell-based
HeLa [17] = assay: Cytostatic activity against human HeLa cells in presence of 500 uM uridine; assay type: functional, cell-based
HeLa [18] = assay: Cytostatic activity against human HeLa cells in presence of 500 uM uracil; assay type: functional, cell-based
L1210 [19] = assay: Inhibition of DNA synthesis in mouse L1210 cells assessed as [methyl-3H]thymidine incorporation in to DNA by liquid scintillation counting; assay type: functional, cell-based
L1210 [20] = assay: Inhibition of DNA synthesis in mouse L1210 cells assessed as [6-3H]2'-deoxyuridine incorporation in to DNA by liquid scintillation counting; assay type: functional, cell-based
L1210 [21] = assay: Inhibition of RNA synthesis in mouse L1210 cells assessed as [5-3H]uridine incorporation in to RNA by liquid scintillation counting; assay type: functional, cell-based
L1210 [22] = assay: Inhibition of DNA synthesis in mouse L1210 cells assessed as [methyl-3H]thymidine incorporation in to DNA preincubated for 24 hrs by liquid scintillation counting; assay type: functional, cell-based
L1210 [23] = assay: Inhibition of DNA synthesis in mouse L1210 cells assessed as [6-3H]2'-deoxyuridine incorporation in to DNA preincubated for 24 hrs by liquid scintillation counting; assay type: functional, cell-based
L1210 [24] = assay: Inhibition of RNA synthesis in mouse L1210 cells assessed as [5-3H]uridine incorporation in to RNA preincubated for 24 hrs by liquid scintillation counting; assay type: functional, cell-based
Punta Toro virus = assay: Antiviral activity against Punta Toro virus infected in Vero cells assessed as inhibition of virus-induced cytopathic effect; assay type: functional, organism-based
[25] = tested on: Vesicular stomatitis virus; assay: Antiviral activity against Vesicular stomatitis virus infected in HeLa cells assessed as inhibition of virus-induced cytopathic effect; assay type: functional, organism-based
[26] = tested on: Respiratory syncytial virus; assay: Antiviral activity against Respiratory syncytial virus infected in HeLa cells assessed as inhibition of virus-induced cytopathic effect; assay type: functional, organism-based
Sindbis virus = assay: Antiviral activity against Sindbis virus infected in Vero cells assessed as inhibition of virus-induced cytopathic effect; assay type: functional, organism-based
Coxsackievirus B4 [27] = assay: Antiviral activity against Human coxsackievirus B4 infected in Vero cells assessed as inhibition of virus-induced cytopathic effect; assay type: functional, organism-based
Coxsackievirus B4 [28] = assay: Antiviral activity against Human coxsackievirus B4 infected in HeLa cells assessed as inhibition of virus-induced cytopathic effect; assay type: functional, organism-based
[29] = Stability of compound in phosphate buffered saline up to 3 days; assay type: physicochemical; conditions: buffer, 72 h
[30] = Stability of compound in phosphate buffer at pH 6.2 after 60 mins; assay type: physicochemical; conditions: pH 6.2, 1 h
Thymidylate synthase [31] = molecular target: T1, Thymidylate synthase (Mus musculus, UniProt P07607); assay: Inhibition of thymidylate synthase in mouse L1210 cells assessed as inhibition of tritium release from [5-3H]deoxyuridine after preincubation for 15 mins by liquid scintillation counting; assay type: cell-based
T1 sequence (P07607 whole entry): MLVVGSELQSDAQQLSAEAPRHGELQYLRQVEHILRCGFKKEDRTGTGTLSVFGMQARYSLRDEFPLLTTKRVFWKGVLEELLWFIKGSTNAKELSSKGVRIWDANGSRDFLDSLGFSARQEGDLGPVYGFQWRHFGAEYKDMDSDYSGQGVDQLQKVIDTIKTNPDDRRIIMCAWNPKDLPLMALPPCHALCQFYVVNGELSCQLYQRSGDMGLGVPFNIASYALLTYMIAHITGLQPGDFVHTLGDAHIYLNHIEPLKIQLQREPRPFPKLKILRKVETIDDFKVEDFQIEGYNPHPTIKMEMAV

Thymidylate synthase [32] = molecular target: T1, Thymidylate synthase; assay: Inhibition of thymidylate synthase in mouse L1210 cells assessed as inhibition of tritium release from [5-3H]deoxyuridine after preincubation for 4 hrs by liquid scintillation counting; assay type: cell-based
Thymidylate synthase [33] = molecular target: T1, Thymidylate synthase; assay: Inhibition of thymidylate synthase in mouse L1210 cells assessed as inhibition of tritium release from [5-3H]deoxyuridine after preincubation for 24 hrs by liquid scintillation counting; assay type: cell-based
Thymidylate synthase [34] = molecular target: T1, Thymidylate synthase; assay: Inhibition of thymidylate synthase in mouse L1210 cells assessed as inhibition of tritium release from [5-3H]deoxycytidine after preincubation for 15 mins by liquid scintillation counting; assay type: cell-based
Thymidylate synthase [35] = molecular target: T1, Thymidylate synthase; assay: Inhibition of thymidylate synthase in mouse L1210 cells assessed as inhibition of tritium release from [5-3H]deoxycytidine after preincubation for 4 hrs by liquid scintillation counting; assay type: cell-based
Thymidylate synthase [36] = molecular target: T1, Thymidylate synthase; assay: Inhibition of thymidylate synthase in mouse L1210 cells assessed as inhibition of tritium release from [5-3H]deoxycytidine after preincubation for 24 hrs by liquid scintillation counting; assay type: cell-based

| SMILES | Activity [1] | Activity (Human respirovirus 3) | Activity [2] | Activity (Vaccinia virus) | Activity (Human alphaherpesvirus 2) | Activity (Human alphaherpesvirus 1) | IC50 (FM3A [8]) | IC50 (HeLa [10]) | IC50 (L1210 [11]) | IC50 (L1210 [12]) | IC50 (L1210 [13]) | IC50 (L1210 [14]) | IC50 (HeLa [15]) | IC50 (HeLa [16]) | IC50 (HeLa [17]) | IC50 (HeLa [18]) | IC50 (L1210 [19]) | IC50 (L1210 [20]) | IC50 (L1210 [21]) | IC50 (L1210 [22]) | other results |
| --- | --- | --- | --- | --- | --- | --- | --- | --- | --- | --- | --- | --- | --- | --- | --- | --- | --- | --- | --- | --- | --- |
| O=C1C=CCO[C@@H]1n1cc(F)c(O)nc1=O | inactive | inactive | inactive | inactive | inactive | inactive | 0.23 µM | 0.97 µM | 75 µM | 3.5 µM | 2 µM | 1 µM | 7.1 µM | 0.62 µM | 5.3 µM | 8 µM | 349 µM | 3.1 µM | 63 µM | 294 µM | Ratio (HeLa [3]): 1.5; Ratio (CCRF-CEM [4]): 1.5; Ratio (FM3A [5]): 1.5; Ratio (L1210 [6]): 1.5; IC50 (L1210 [7]): 1.3 µM; IC50 (CCRF-CEM [9]): 17 µM; IC50 (L1210 [23]): 2.5 µM; IC50 (L1210 [24]): 16 µM; Activity (Punta Toro virus): inactive; Activity [25]: inactive; Activity [26]: inactive; Activity (Sindbis virus): inactive; Activity (Coxsackievirus B4 [27]): inactive; Activity (Coxsackievirus B4 [28]): inactive |
| C=C1[C@H](O)[C@H](O)CO[C@@H]1n1cc(F)c(=O)[nH]c1=O | – | – | – | – | – | – | – | – | – | – | – | – | – | – | – | – | – | – | – | – | Stability [29]: Stable; Stability [30]: Stable; IC50 (Thymidylate synthase [31]): ≥ 10 µM; IC50 (Thymidylate synthase [32]): 3.6 µM; IC50 (Thymidylate synthase [33]): 0.57 µM; IC50 (Thymidylate synthase [34]): 8.2 µM; IC50 (Thymidylate synthase [35]): 5.5 µM; IC50 (Thymidylate synthase [36]): 5.4 µM |
| C=C1[C@H](O)[C@H](O)CO[C@@H]1n1cc(F)c(O)nc1=O | inactive | inactive | inactive | inactive | inactive | inactive | 1.9 µM | 18 µM | > 500 µM | 66 µM | 18 µM | 18 µM | 146 µM | 12 µM | 79 µM | 58 µM | > 500 µM | 85 µM | > 100 µM | > 500 µM | IC50 (L1210 [7]): 21 µM; IC50 (CCRF-CEM [9]): 97 µM; IC50 (L1210 [23]): 18 µM; IC50 (L1210 [24]): 282 µM; Activity (Punta Toro virus): inactive; Activity [25]: inactive; Activity [26]: inactive; Activity (Sindbis virus): inactive; Activity (Coxsackievirus B4 [27]): inactive; Activity (Coxsackievirus B4 [28]): inactive |
| O=c1[nH]cc(F)c(=O)[nH]1 [FLUOROURACIL] | inactive | inactive | inactive | inactive | inactive | inactive | 0.18 µM | 0.45 µM | 21 µM | 1.3 µM | 0.62 µM | 0.47 µM | 1.5 µM | 0.18 µM | 1.1 µM | 1 µM | > 500 µM | 0.97 µM | 51 µM | > 500 µM | IC50 (L1210 [23]): 0.37 µM; IC50 (L1210 [24]): 4.9 µM; IC50 (Thymidylate synthase [31]): 7 µM; IC50 (Thymidylate synthase [32]): 0.22 µM; IC50 (Thymidylate synthase [33]): 0.02 µM; IC50 (Thymidylate synthase [34]): ≥ 10 µM; IC50 (Thymidylate synthase [35]): 0.6 µM; IC50 (Thymidylate synthase [36]): 0.06 µM; Activity (Punta Toro virus): inactive; Activity [25]: inactive; Activity [26]: inactive; Activity (Sindbis virus): inactive; Activity (Coxsackievirus B4 [27]): inactive; Activity (Coxsackievirus B4 [28]): inactive |
| C=C1C=CCO[C@@H]1n1cc(F)c(O)nc1=O | inactive | inactive | inactive | inactive | inactive | inactive | 2.4 µM | 3.5 µM | 182 µM | 18 µM | 5.7 µM | 5.8 µM | 34 µM | 1.4 µM | 8 µM | 18 µM | > 500 µM | 37 µM | > 100 µM | > 500 µM | IC50 (L1210 [7]): 8 µM; IC50 (CCRF-CEM [9]): 85 µM; IC50 (L1210 [23]): 7.9 µM; IC50 (L1210 [24]): 84 µM; Activity (Punta Toro virus): inactive; Activity [25]: inactive; Activity [26]: inactive; Activity (Sindbis virus): inactive; Activity (Coxsackievirus B4 [27]): inactive; Activity (Coxsackievirus B4 [28]): inactive |
| O=C1C=CCO[C@@H]1n1cc(F)c(=O)[nH]c1=O | – | – | – | – | – | – | – | – | – | – | – | – | – | – | – | – | – | – | – | – | Stability [29]: Unstable; IC50 (Thymidylate synthase [31]): 8.1 µM; IC50 (Thymidylate synthase [32]): 0.83 µM; IC50 (Thymidylate synthase [33]): 0.063 µM; IC50 (Thymidylate synthase [34]): > 10 µM; IC50 (Thymidylate synthase [35]): 0.95 µM; IC50 (Thymidylate synthase [36]): 0.071 µM |
| C=C1C=CCO[C@@H]1n1cc(F)c(=O)[nH]c1=O | – | – | – | – | – | – | – | – | – | – | – | – | – | – | – | – | – | – | – | – | Stability [29]: Stable; Stability [30]: Stable; IC50 (Thymidylate synthase [31]): > 10 µM; IC50 (Thymidylate synthase [32]): 8.7 µM; IC50 (Thymidylate synthase [33]): 0.43 µM; IC50 (Thymidylate synthase [34]): > 10 µM; IC50 (Thymidylate synthase [35]): 9.3 µM; IC50 (Thymidylate synthase [36]): 2.2 µM |
